A word on the IC50: it is the concentration that gives 50% inhibition. Read a high IC50 as weaker potency in that assay.

For this assay, the target named is T1, chymotrypsin-like activity of 20S proteasome (Bos taurus, UniProt Q2TBX6+Q32KL2).
T1 construct: was purified to homogeneity from bovine brain according to published methods; from tissue; host or cells: bovine brain
Kind of assay: 20S proteasome chymotryptic activity inhibition assay (Suc-Leu-Leu-Val-Tyr-AMC cleavage). The assay is classed as biochemical. The conditions noted are these: 2 μg 20S proteasome from bovine brain, 50 μM fluorogenic substrate, 15 minutes at 37° C., pH7.5. On the procedure:
Compounds of this invention prepared according to the method of Example 1 were tested as follows. The 20S catalytic subunit of the proteasome (also known as the multicatalytic proteinase complex) was purified to homogeneity from bovine brain according to published methods (Wilk S. and Orlowski,M 1983, 40 842 J.Neurochem). The chymotryptic activity of the complex is measured by the increase in fluorescence following cleavage of the substrate peptide succinyl-leucine-leucine-valine-tyrosine-7-amino-4methyl coumarin. The standard in vitro assay consists of 2 μg 20S proteasome, 0.1-100 μg/ml proteasome inhibitor in 200 μl 50 mM HEPES, containing 0.1% sodium dodecyl sulphate, pH7.5. The proteolytic reaction is initiated by the addition of 50 μM flourogenic peptide substrate and allowed to progress for 15 minutes at 37° C. The reaction is terminated by the addition of 100 μL of 100 mM acetate buffer, pH4.0. The rate of proteolysis is directly proportional to the amount of liberated aminomethylcoumarin which is measured by fluorescent spectroscopy (EX 370 nm, EM 430 nm).
As to `CCCCC(NC(=O)C(=O)Cc1c[nH]c2ccccc12)C(=O)NC(CC(C)C)C(=O)NC(CC(=O)O)C(=O)O` (stereo not drawn) [Compound 136], the “IC50 for the inhibition of the chymotrypsin-like activity of 20S proteasome” value (“IC50 for the inhibition” for short) was greater than 10 µg/mL.
For the compound `CCC(NC(=O)C(=O)Cc1c[nH]c2ccccc12)C(=O)NC(CC(C)C)C(=O)NC(CC(=O)O)C(=O)O` (stereo not drawn) [Compound 140], the “IC50 for the inhibition” value is greater than 10 µg/mL.
As for `CC(C)CC(NC(=O)C(CC(=O)O)NC(=O)C(=O)Cc1c[nH]c2ccccc12)C(=O)NC(Cc1ccccc1)C(=O)O` (stereo not drawn) [Compound 110], the “IC50 for the inhibition” value is greater than 10 µg/mL.
With `CCCCC(NC(=O)C(=O)Cc1c[nH]c2ccccc12)C(=O)NC(CC(C)C)C(=O)NC(CCC(=O)O)C(=O)O` (stereo not drawn) [Compound 151], the “IC50 for the inhibition” value was greater than 10 µg/mL.
For `CC(C)CC(NC(=O)C(Cc1cccnc1)NC(=O)C(=O)Cc1c[nH]c2ccccc12)C(=O)NCC(=O)O` (stereo not drawn) [Compound 169], the “IC50 for the inhibition” value was greater than 10 µg/mL.
The same measure, in the same setting: the same measure for `CC(C)CC(NC(=O)C(CC1CCCCC1)NC(=O)C(=O)Cc1c[nH]c2ccccc12)C(=O)NC(C(=O)O)C(C)C` (stereo not drawn) [Compound 168]: greater than 10 µg/mL; for `CCCCC(NC(=O)C(CC(C)C)NC(=O)C(CCCC)NC(=O)C(=O)Cc1c[nH]c2ccccc12)C(=O)O` (stereo not drawn) [Compound 121]: greater than 10 µg/mL.
As to `CC(C)CC(NC(=O)C(=O)Cc1c[nH]c2ccccc12)C(=O)NC(CC(C)C)C(=O)NC(C)C(=O)O` (stereo not drawn) [Compound 35], the “IC50 for the inhibition” value was greater than 10 µg/mL.
In turn, `CCCC[C@H](NC(=O)C(=O)Cc1c[nH]c2ccccc12)C(=O)N[C@H](CC(C)C)C(=O)N[C@@H](CO)C(=O)O` [Compound 91] returned an IC50 greater than 19.4 µM.
Same read-out and setting: the same measure for `CC(C)C[C@@H](NC(=O)[C@H](CC(=O)O)NC(=O)C(=O)Cc1c[nH]c2ccccc12)C(=O)N[C@H](C(=O)O)C(C)C` [Compound 200]: greater than 18.8 µM.
Take `CC(C)CC(NC(=O)C(Cc1ccc(-c2ccccc2)cc1)NC(=O)C(=O)Cc1c[nH]c2ccccc12)C(=O)NC(C(=O)O)C(C)C` (stereo not drawn) [Compound 165]: the “IC50 for the inhibition” value is greater than 10 µg/mL.
Still for that read-out and setting: the same measure for `CC(C)CC(NC(=O)C(CC(C)C)NC(=O)C(=O)c1c[nH]c2ccccc12)C(=O)O` (stereo not drawn) [Compound 10]: greater than 10 µg/mL.
Still for that read-out and setting: the same measure for `CC(C)CC(NC(=O)C(Cc1ccccc1)NC(=O)C(=O)Cc1c[nH]c2ccccc12)C(=O)NC(CCC(=O)O)C(=O)O` (stereo not drawn) [Compound 152]: greater than 10 µg/mL; for `CC(C)CC(NC(=O)C(Cc1ccc(-c2ccccc2)cc1)NC(=O)C(=O)Cc1c[nH]c2ccccc12)C(=O)NC(CCC(=O)O)C(=O)O` (stereo not drawn) [Compound 163]: greater than 10 µg/mL.
On the same count and under the same terms, to `CC(C)CC(NC(=O)C(NC(=O)C(=O)Cc1c[nH]c2ccccc12)C(C)O)C(=O)NCC(=O)O` (stereo not drawn) [Compound 56] belongs greater than 10 µg/mL; to `CC(C)CC(NC(=O)C(Cc1ccc(-c2ccccc2)cc1)NC(=O)C(=O)Cc1c[nH]c2ccccc12)C(=O)NC(CC(=O)O)C(=O)O` (stereo not drawn) [Compound 195], greater than 10 µg/mL; to `CC(C)CC(NC(=O)CCNC(=O)C(=O)Cc1c[nH]c2ccccc12)C(=O)NC(CC(=O)O)C(=O)O` (stereo not drawn) [Compound 135], greater than 10 µg/mL.
With `CCCCC(NC(=O)C(=O)Cc1c[nH]c2ccccc12)C(=O)NC(CC(C)C)C(=O)NC(C(=O)O)C(C)C` (stereo not drawn) [Compound 39], the “IC50 for the inhibition” value is greater than 10 µg/mL.
On the same count and under the same terms, the same measure for `CCCC(NC(=O)C(=O)Cc1c[nH]c2ccccc12)C(=O)NC(CC(C)C)C(=O)NC(CO)C(=O)O` (stereo not drawn) [Compound 97]: greater than 10 µg/mL; for `CC(C)CC(NC(=O)C(CC1CCCCC1)NC(=O)C(=O)Cc1c[nH]c2ccccc12)C(=O)NC(CO)C(=O)O` (stereo not drawn) [Compound 100]: greater than 10 µg/mL.
Same read-out and setting: to `CC(C)CC(NC(=O)C(NC(=O)C(=O)Cc1c[nH]c2ccccc12)C(C)O)C(=O)NC(Cc1ccc(O)cc1)C(=O)O` (stereo not drawn) [Compound 83] belongs greater than 10 µg/mL; to `CC(C)CC(NC(=O)C(=O)Cc1c[nH]c2ccccc12)C(=O)NC(CC(C)C)C(=O)NCC(=O)NCc1ccccc1` (stereo not drawn) [Compound 9], greater than 10 µg/mL; to `CC(C)CC(NC(=O)C(CC1CCCCC1)NC(=O)C(=O)Cc1c[nH]c2ccccc12)C(=O)NC(C)C(=O)O` (stereo not drawn) [Compound 78], greater than 10 µg/mL.
Same read-out and setting: to `CC(C)CC(NC(=O)C(NC(=O)C(=O)Cc1c[nH]c2ccccc12)C(C)C)C(=O)NC(C(=O)O)C(C)C` (stereo not drawn) [Compound 44] belongs greater than 10 µg/mL.
On to `CC(C)CC(NC(=O)C(Cc1ccc(-c2ccccc2)cc1)NC(=O)C(=O)Cc1c[nH]c2ccccc12)C(=O)NC(Cc1c[nH]cn1)C(=O)O` (stereo not drawn) [Compound 196], for which the “IC50 for the inhibition” value was greater than 10 µg/mL.
Still for that read-out and setting: to `CC(C)CC(NC(=O)C(C)NC(=O)C(=O)Cc1c[nH]c2ccccc12)C(=O)NC(Cc1ccccc1)C(=O)O` (stereo not drawn) [Compound 109] belongs greater than 10 µg/mL; to `CC(C)CC(NC(=O)C(CC1CCCCC1)NC(=O)C(=O)Cc1c[nH]c2ccccc12)C(=O)NC(CCC(=O)O)C(=O)O` (stereo not drawn) [Compound 160], greater than 10 µg/mL.
Same read-out and setting: to `CCCCC(NC(=O)C(CC(C)C)NC(=O)C(NC(=O)C(=O)Cc1c[nH]c2ccccc12)C(C)O)C(=O)O` (stereo not drawn) [Compound 123] belongs greater than 10 µg/mL; to `CC(C)CC(NC(=O)C(=O)Cc1c[nH]c2ccccc12)C(=O)NC(CC(C)C)C(=O)NC(C)C(=O)O` (stereo not drawn) [Compound 20], greater than 10 µg/mL.
Same read-out and setting: to `CC(C)CC(NC(=O)C(Cc1ccc(O)cc1)NC(=O)C(=O)Cc1c[nH]c2ccccc12)C(=O)NCC(=O)O` (stereo not drawn) [Compound 61] belongs greater than 10 µg/mL.
In the case of `CCCCC(NC(=O)C(CC(C)C)NC(=O)CNC(=O)C(=O)Cc1c[nH]c2ccccc12)C(=O)O` (stereo not drawn) [Compound 119], the “IC50 for the inhibition” value is greater than 10 µg/mL.
Still for that read-out and setting: to `CC(C)CC(NC(=O)C(Cc1ccc(-c2ccccc2)cc1)NC(=O)C(=O)Cc1c[nH]c2ccccc12)C(=O)NC(Cc1ccc(-c2ccccc2)cc1)C(=O)O` (stereo not drawn) [Compound 187] belongs greater than 10 µg/mL.
On the same count and under the same terms, the same measure for `CC(C)CC(NC(=O)CNC(=O)C(=O)Cc1c[nH]c2ccccc12)C(=O)NC(C)C(=O)O` (stereo not drawn) [Compound 67]: greater than 10 µg/mL.
On the same count and under the same terms, to `CC(C)CC(NC(=O)C(=O)Cc1c[nH]c2ccccc12)C(=O)NC(CC(C)C)C(=O)NC(C(=O)O)C(C)C` (stereo not drawn) [Compound 27] belongs greater than 10 µg/mL; to `CC(C)CC(NC(=O)C(=O)Cc1c[nH]c2ccccc12)C(=O)NC(CC(C)C)C(=O)NC(Cc1ccc(O)cc1)C(=O)O` (stereo not drawn) [Compound 31], greater than 10 µg/mL; to `CC(C)CC(NC(=O)C(NC(=O)C(=O)Cc1c[nH]c2ccccc12)C(C)C)C(=O)NC(CC(=O)O)C(=O)O` (stereo not drawn) [Compound 141], greater than 10 µg/mL.
On to `CC(C)CC(NC(=O)C(CC(=O)O)NC(=O)C(=O)Cc1c[nH]c2ccccc12)C(=O)NC(CO)C(=O)O` (stereo not drawn) [Compound 95], for which the “IC50 for the inhibition” value was greater than 10 µg/mL.
The same measure, in the same setting: the same measure for `CCC(C)C(NC(=O)C(CC(C)C)NC(=O)C(CC(C)C)NC(=O)C(=O)Cc1c[nH]c2ccccc12)C(=O)O` (stereo not drawn) [Compound 29]: greater than 10 µg/mL; for `CCC(C)C(NC(=O)C(=O)Cc1c[nH]c2ccccc12)C(=O)NC(CC(C)C)C(=O)NC(CO)C(=O)O` (stereo not drawn) [Compound 99]: greater than 10 µg/mL; for `CC(C)CC(NC(=O)C(Cc1ccc2ccccc2c1)NC(=O)C(=O)Cc1c[nH]c2ccccc12)C(=O)NC(CCC(=O)O)C(=O)O` (stereo not drawn) [Compound 162]: greater than 10 µg/mL.
Same read-out and setting: the same measure for `CC(C)CC(NC(=O)C(=O)c1c[nH]c2ccccc12)C(=O)NC(CC(C)C)C(=O)NC(Cc1ccccc1)C(=O)O` (stereo not drawn) [Compound 14]: greater than 10 µg/mL; for `CC(C)CC(NC(=O)C(Cc1cccnc1)NC(=O)C(=O)Cc1c[nH]c2ccccc12)C(=O)NC(CO)C(=O)O` (stereo not drawn) [Compound 101]: greater than 10 µg/mL; for `CC(C)CC(NC(=O)C(NC(=O)C(=O)Cc1c[nH]c2ccccc12)C(C)C)C(=O)NC(CO)C(=O)O` (stereo not drawn) [Compound 96]: greater than 10 µg/mL.
The same measure, in the same setting: to `CCCC(NC(=O)C(=O)Cc1c[nH]c2ccccc12)C(=O)NC(CC(C)C)C(=O)NC(C(=O)O)C(C)C` (stereo not drawn) [Compound 201] belongs greater than 10 µg/mL; to `CC(C)CC(NC(=O)CCNC(=O)C(=O)Cc1c[nH]c2ccccc12)C(=O)NC(CCC(=O)O)C(=O)O` (stereo not drawn) [Compound 150], greater than 10 µg/mL.

The values are drawn from patent publication US6781000B1, “Alpha-ketoamide inhibitors of 20S proteasome” (CV Theurapeutics, Inc., priority 1998, dated 2004).
